The values below come from ChEMBL document CHEMBL5241113, “Total Heterologous Biosynthesis of Fungal Natural Products in Aspergillus nidulans” (2022).

The assay deals with Nematoda. Description: Nematocidal activity. The class given is functional.

Each structure is given as a SMILES string. ≈ marks a conversion by molar mass, not a printed value.

`CC(=O)O[C@H](C[C@H](C)O)[C@@H](C)[C@@H](O)[C@@H](C)C[C@H](C)[C@@H]1OC(=O)[C@H](C)NC(=O)C[C@@H](O)C[C@H](O)[C@H](C)C[C@H]1C`: the LC50 came to 0.5 µg/mL (≈ 0.916 µM).

Consider `CC(=O)O[C@@H](C)C[C@@H](O)[C@@H](C)[C@@H](O)[C@@H](C)C[C@H](C)[C@@H]1OC(=O)[C@H](C)NC(=O)C[C@@H](O)C[C@H](O)[C@H](C)C[C@H]1C`, for which the LC50 was determined as 0.5 µg/mL (≈ 0.916 µM).
